From publication PMC9333195, “Discovery of 2-Phenylquinoline-4-Carboxylic Acid Derivatives as Novel Histone Deacetylase Inhibitors” (Frontiers in Chemistry, 2022) come the findings set out here.

For one series, the system named is K562 cells. Kind of series: CCK-8 antiproliferative assay, K562. Conditions: for inhibition at 2 µM: Homo sapiens, K562, read-out: K562 percentage inhibitory rate; for K562 percentage inhibitory rate: 2.0 µM compound, K562 cells, CCK-8, mean of three experiments.
Series [1] has as its system Hela nucleus extract containing a mixture of HDAC isoforms. As to the kind of experiment: In vitro HDAC inhibitory assay, HeLa cell nuclear extract screening at 2 µM. The series is classed as biochemical. To be noted: 2.0 µM compound, mean of three experiments. The protocol: The HDAC enzyme inhibitory activities of synthesized compounds were evaluated against Hela nucleus extract containing a mixture of HDAC isoforms. Percentage inhibitory rate (PIR) was calculated to determine the activity of tested compounds (Table 1).
All HDAC enzymes were purchased from BPS Bioscience. […] The reaction was terminated by adding 100 μl of imaging agent containing trypsin and trichostatin A (TSA). After standing for 20 min, the fluorescence intensity was measured at the excitation and emission wavelengths of 360 and 460 nm with a microplate reader. The inhibition rate was calculated from the fluorescence intensity readings of the test wells relative to the control wells, and the IC50 curve and value were determined by GraphPad Prism 6.0 software.

The melting point is the temperature of the solid-liquid transition.

Method for K562 cells: The proliferation of cancer cells was tested by CCK-8 assay. Briefly, cells were seeded in a 96-well plate with about 5 × 10^3 cells in each well. In the K652 cell screening, cells were treated with 2.0 μM of tested compounds. […] The light absorbance at 450 nm was measured by using an Opsys microplate reader (Dynex Technologies, Chantilly, VA, United States).

The molecule `O=C(NO)c1ccc(N2CCN(C(=O)c3cc(-c4ccccc4Cl)nc4ccccc34)CC2)cc1` [Compound D14, 4-(4-(2-(2-Chlorophenyl)Quinoline-4-Carbonyl)Piperazin-1-yl)-N-Hydroxybenzamide] gave a melting point of 235 to 236.4 °C. Moreover, the inhibition at 2 µM with K562 cells came out at 48.3 ± 1.02%. In series [1], the “HDACs percentage inhibitory rate (PIR)” value came to 49.74 ± 2.06%.

In turn, `O=C(NO)c1ccc(N2CCN(C(=O)c3cc(-c4ccc(NC(=O)c5cccc(Br)c5)cc4)nc4ccccc34)CC2)cc1` [Compound D21, 3-Bromo-N-(4-(4-(4-(4-(Hydroxycarbamoyl)Phenyl)Piperazine-1-Carbonyl)Quinolin-2-yl)Phenyl)Benzamide] had a melting point of 170.5 to 170.8 °C. Also, the inhibition at 2 µM in the series with K562 cells came to 47.6 ± 0.92%. The “HDACs percentage inhibitory rate (PIR)” value in series [1] turned out to be 50.26 ± 1.41%.

As for `O=C(NO)c1ccc(N2CCN(C(=O)c3cc(-c4ccc(NC(=O)c5ccc(F)cc5)cc4)nc4ccccc34)CC2)cc1` [Compound D20, 4-Fluoro-N-(4-(4-(4-(4-(Hydroxycarbamoyl)Phenyl)Piperazine-1-Carbonyl)Quinolin-2-yl)Phenyl)Benzamide], the melting point fell in the range of 178.3 to 180.3 °C. In addition, in the series with K562 cells, the inhibition at 2 µM is 45.9 ± 1.34%. Further, the “HDACs percentage inhibitory rate (PIR)” value in series [1] stood at 48.46 ± 0.68%.

Turning to `O=C(NO)c1ccc(N2CCN(C(=O)c3cc(-c4cccc(F)c4)nc4ccccc34)CC2)cc1` [Compound D15, 4-(4-(2-(3-Fluorophenyl)Quinoline-4-Carbonyl)Piperazin-1-yl)-N-Hydroxybenzamide], the melting point was 225 to 226.3 °C. In addition, the inhibition at 2 µM in the series on K562 cells came out at 26.2 ± 0.62%. Further, the “HDACs percentage inhibitory rate (PIR)” value in series [1] turned out to be 58.80 ± 2.95%.

Molecule `Cc1cccc(-c2cc(C(=O)N3CCN(c4ccc(C(=O)NO)cc4)CC3)c3ccccc3n2)c1` [Compound D9, N-Hydroxy-4-(4-(2-(m-Tolyl)Quinoline-4-Carbonyl)Piperazin-1-yl)Benzamide] showed a melting point of 199.2 to 199.7 °C. Besides, the inhibition at 2 µM in the series on K562 cells was found to be 45.81 ± 0.33%. Besides, in series [1], the “HDACs percentage inhibitory rate (PIR)” value is recorded as 49.33 ± 0.82%.

As for `O=C(NO)c1ccc(N2CCN(C(=O)c3cc(-c4ccc(NC(=O)c5ccccc5)cc4)nc4ccccc34)CC2)cc1` [Compound D19, 4-(4-(2-(4-Benzamidophenyl)Quinoline-4-Carbonyl)Piperazin-1-yl)-N-Hydroxybenzamide], the melting point lay within 173.9 to 174.8 °C. In the series with K562 cells, the inhibition at 2 µM is 59.19 ± 0.35%. For the same molecule, in series [1], the “HDACs percentage inhibitory rate (PIR)” value came to 45.31 ± 0.68%.

For `COc1ccccc1-c1cc(C(=O)N2CCN(c3ccc(C(=O)NO)cc3)CC2)c2ccccc2n1` [Compound D13, N-Hydroxy-4-(4-(2-(2-Methoxyphenyl)Quinoline-4-Carbonyl)Piperazin-1-yl)Benzamide], the melting point lay within 224 to 224.9 °C. Moreover, in the series with K562 cells, the inhibition at 2 µM came out at 43.81 ± 0.26%. For the same molecule, the “HDACs percentage inhibitory rate (PIR)” value in series [1] is on record as 54.24 ± 0.18%.

Molecule `O=C(NO)c1ccc(N2CCN(C(=O)c3cc(-c4ccc(NC(=O)c5ccccc5Cl)cc4)nc4ccccc34)CC2)cc1` [Compound D23, 2-Chloro-N-(4-(4-(4-(4-(Hydroxycarbamoyl)Phenyl)Piperazine-1-Carbonyl)Quinolin-2-yl)Phenyl)Benzamide] gave a melting point of 167.2 to 167.8 °C. In addition, the inhibition at 2 µM in the series on K562 cells was 61.92 ± 0.42%. Further, in series [1], the “HDACs percentage inhibitory rate (PIR)” value worked out at 62.91 ± 2.26%.

As to `O=C(NO)c1ccc(N2CCN(C(=O)c3cc(-c4ccccc4F)nc4ccccc34)CC2)cc1` [Compound D10, 4-(4-(2-(2-Fluorophenyl)Quinoline-4-Carbonyl)Piperazin-1-yl)-N-Hydroxybenzamide], the melting point lay within 172.5 to 173.3 °C. Also, the inhibition at 2 µM in the series with K562 cells turned out to be 40.9 ± 1.22%. In addition, the “HDACs percentage inhibitory rate (PIR)” value in series [1] was determined as 58.52 ± 0.64%.

Molecule `O=C(NO)c1ccc(N2CCN(C(=O)c3cc(-c4ccc(C(F)(F)F)cc4)nc4ccccc34)CC2)cc1` [Compound D7, N-Hydroxy-4-(4-(2-(4-(Trifluoromethyl)Phenyl)Quinoline-4-Carbonyl)Piperazin-1-yl)Benzamide] showed a melting point of 212.7 to 213.9 °C. Further, in the series with K562 cells, the inhibition at 2 µM was 40.3 ± 1.2%. Further, the “HDACs percentage inhibitory rate (PIR)” value in series [1] was 52.60 ± 2.37%.

Take `CN(C)c1ccc(-c2cc(C(=O)N3CCN(c4ccc(C(=O)NO)cc4)CC3)c3ccccc3n2)cc1` [Compound D18, 4-(4-(2-(4-(Dimethylamino)Phenyl)Quinoline-4-Carbonyl)Piperazin-1-yl)-N-Hydroxybenzamide]: the melting point fell in the range of 200.6 to 201.2 °C. Besides, in the series on K562 cells, the inhibition at 2 µM came out at 48.3 ± 0.31%. In addition, the “HDACs percentage inhibitory rate (PIR)” value in series [1] came out at 48.37 ± 0.35%.

In turn, `O=C(NO)c1ccc(N2CCN(C(=O)c3cc(-c4ccc(NC(=O)c5cccc(F)c5)cc4)nc4ccccc34)CC2)cc1` [Compound D26, 3-Fluoro-N-(4-(4-(4-(4-(Hydroxycarbamoyl)Phenyl)Piperazine-1-Carbonyl)Quinolin-2-yl)Phenyl)Benzamide] showed a melting point of 232.6 to 232.9 °C. The inhibition at 2 µM in the series with K562 cells was determined as 43.1 ± 0.64%. Moreover, the “HDACs percentage inhibitory rate (PIR)” value in series [1] worked out at 49.99 ± 0.32%.

As to “3,5-Difluoro-N-(4-(4-(4-(4-(Hydroxycarbamoyl)Phenyl)Piperazine-1-Carbonyl)Quinolin-2-yl)Phenyl)Benzamide [Compound D25]”, in the series on K562 cells, the “K562 percentage inhibitory rate” value was 37.64 ± 0.13%. The “HDACs percentage inhibitory rate (PIR)” value in series [1] is reported as 54.74 ± 1.41%.

In the case of `O=C(NO)c1ccc(N2CCN(C(=O)c3cc(-c4ccc(F)cc4)nc4ccccc34)CC2)cc1` [Compound D4, 4-(4-(2-(4-Fluorophenyl)Quinoline-4-Carbonyl)Piperazin-1-yl)-N-Hydroxybenzamide], the melting point is 163.5 to 164.8 °C. Further, in the series on K562 cells, the inhibition at 2 µM was 32.43 ± 0.2%. The “HDACs percentage inhibitory rate (PIR)” value in series [1] is given as 47.79 ± 1.34%.

For `O=C(NO)c1ccc(N2CCN(C(=O)c3cc(-c4ccc(NC(=O)c5ccc(F)cc5F)cc4)nc4ccccc34)CC2)cc1` [Compound D24, 2,4-Difluoro-N-(4-(4-(4-(4-(Hydroxycarbamoyl)Phenyl)Piperazine-1-Carbonyl)Quinolin-2-yl)Phenyl)Benzamide], the melting point was in the range of 175.3 to 176.3 °C. Moreover, the inhibition at 2 µM with K562 cells was determined as 31.1 ± 0.54%. The “HDACs percentage inhibitory rate (PIR)” value in series [1] is 66.16 ± 1.57%.

The molecule `COc1ccc(-c2cc(C(=O)N3CCN(c4ccc(C(=O)NO)cc4)CC3)c3ccccc3n2)cc1` [Compound D6, N-Hydroxy-4-(4-(2-(4-Methoxyphenyl)Quinoline-4-Carbonyl)Piperazin-1-yl)Benzamide] came in with a melting point of 184.3 to 186.8 °C. Moreover, the inhibition at 2 µM in the series on K562 cells came out at 51.55 ± 0.25%. Also, the “HDACs percentage inhibitory rate (PIR)” value in series [1] was 52.31 ± 3.09%.

For the molecule `O=C(NO)c1ccc(N2CCN(C(=O)c3cc(-c4cc(F)ccc4F)nc4ccccc34)CC2)cc1` [Compound D27, 4-(4-(2-(2,5-Difluorophenyl)Quinoline-4-Carbonyl)Piperazin-1-yl)-N-Hydroxybenzamide], the melting point is 196.9 to 198 °C. The inhibition at 2 µM in the series with K562 cells came to 63.79 ± 0.13%. Also, the “HDACs percentage inhibitory rate (PIR)” value in series [1] amounted to 59.30 ± 0.74%.

Turning to “N-Hydroxy-4-(4-(2-(o-Tolyl)Quinoline-4-Carbonyl)Piperazin-1-yl)Benzamide [Compound D16]”, the “K562 percentage inhibitory rate” value in the series with K562 cells was 15.26 ± 0.33%. Besides, the “HDACs percentage inhibitory rate (PIR)” value in series [1] stood at 49.04 ± 31.22%.

Turning to `COc1cccc(-c2cc(C(=O)N3CCN(c4ccc(C(=O)NO)cc4)CC3)c3ccccc3n2)c1` [Compound D11, N-Hydroxy-4-(4-(2-(3-Methoxyphenyl)Quinoline-4-Carbonyl)Piperazin-1-yl)Benzamide], the melting point fell in the range of 179.8 to 180.9 °C. Further, the inhibition at 2 µM with K562 cells was 46.09 ± 0.43%. In addition, the “HDACs percentage inhibitory rate (PIR)” value in series [1] was 63.49 ± 4.61%.

`O=C(NO)c1ccc(N2CCN(C(=O)c3cc(-c4ccccc4)nc4ccccc34)CC2)cc1` [Compound D1, N-Hydroxy-4-(4-(2-Phenylquinoline-4-Carbonyl)Piperazin-1-yl)Benzamide] displayed a melting point of 213.8 to 214.8 °C. The inhibition at 2 µM with K562 cells was 46.58 ± 0.35%. For the same molecule, the “HDACs percentage inhibitory rate (PIR)” value in series [1] is given as 57.96 ± 0.43%.

In turn, `CSc1ccc(-c2cc(C(=O)N3CCN(c4ccc(C(=O)NO)cc4)CC3)c3ccccc3n2)cc1` [Compound D5, N-Hydroxy-4-(4-(2-(4-(Methylthio)Phenyl)Quinoline-4-Carbonyl)Piperazin-1-yl)Benzamide] gave a melting point of 177.2 to 179.6 °C. Moreover, the inhibition at 2 µM with K562 cells is 47.4 ± 1.11%. For the same molecule, the “HDACs percentage inhibitory rate (PIR)” value in series [1] was 50.93 ± 0.93%.

Consider “4-(4-(2-(4-Fluoro-3-Methylphenyl)Quinoline-4-Carbonyl)Piperazin-1-yl)-N-Hydroxybenzamide [Compound D17]”, for which the “K562 percentage inhibitory rate” value with K562 cells is recorded as 41.91 ± 0.13%. Moreover, the “HDACs percentage inhibitory rate (PIR)” value in series [1] stood at 47.41 ± 1.03%.

In turn, `O=C(NO)c1ccc(N2CCN(C(=O)c3cc(-c4ccc(Cl)cc4)nc4ccccc34)CC2)cc1` [Compound D3, 4-(4-(2-(4-Chlorophenyl)Quinoline-4-Carbonyl)Piperazin-1-yl)-N-Hydroxybenzamide] registered a melting point of 228.1 to 229.2 °C. In addition, in the series with K562 cells, the inhibition at 2 µM was found to be 46.4 ± 0.53%. Further, the “HDACs percentage inhibitory rate (PIR)” value in series [1] is on record as 49.43 ± 3.73%.

With `O=C(NO)c1ccc(N2CCN(C(=O)c3cc(-c4ccc(Br)cc4)nc4ccccc34)CC2)cc1` [Compound D2, 4-(4-(2-(4-Bromophenyl)Quinoline-4-Carbonyl)Piperazin-1-yl)-N-Hydroxybenzamide], the melting point lay in the range of 231.7 to 232.8 °C. In addition, in the series on K562 cells, the inhibition at 2 µM turned out to be 48.8 ± 1.32%. Besides, the “HDACs percentage inhibitory rate (PIR)” value in series [1] was determined as 59.50 ± 0.35%.
